Data set [1] is described as follows: ASSAY (IV) determination of solubility. It counts as physicochemical. The method in brief:
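Dissolve polypeptide in water ([…] stock); combine 1:1 with each 100 mM buffer (glycylglycine pH 3.0/4.0/5.0; bistrispropane pH 6.0/6.5/7.0/7.5/8.0); hold 18 hours at room temperature; centrifuge; quantify polypeptide by UPLC.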

The next data set addresses T1, rat calcitonin receptor (Rattus norvegicus, UniProt P32214).
T1 construct: expressed in transfected cells; host or cells: BHK tk'ts 13 (transient, FuGENE 6), membranes
T1 sequence (P32214 25-479 isoform P32214-2 limits assumed): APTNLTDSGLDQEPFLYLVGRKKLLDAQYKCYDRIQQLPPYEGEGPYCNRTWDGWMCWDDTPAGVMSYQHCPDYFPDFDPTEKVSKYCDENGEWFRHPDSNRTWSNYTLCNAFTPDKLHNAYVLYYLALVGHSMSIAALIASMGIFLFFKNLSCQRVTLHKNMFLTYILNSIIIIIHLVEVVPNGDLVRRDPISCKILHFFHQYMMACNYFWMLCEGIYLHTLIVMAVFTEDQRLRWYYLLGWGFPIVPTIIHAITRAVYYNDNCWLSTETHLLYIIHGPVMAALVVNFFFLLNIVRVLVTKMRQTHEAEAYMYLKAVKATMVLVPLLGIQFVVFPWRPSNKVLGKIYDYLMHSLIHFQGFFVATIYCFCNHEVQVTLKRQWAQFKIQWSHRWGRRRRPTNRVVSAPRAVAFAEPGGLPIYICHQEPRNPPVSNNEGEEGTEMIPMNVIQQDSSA
In words: ASSAY (VIII) binding to the rat calcitonin receptor. The settings on record: Table 7, read-out: rCTR bind IC50. The method in brief: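 Rat calcitonin receptor is expressed transiently in BHK tk′ts 13 cells cultured in DMEM with 10% FBS. Roughly two days (approximately 48 hours) post-transfection, cells are harvested for membrane preparation.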

Data set [2] addresses T2, human amylin receptor (membranes from Amylin 3(a)/CRE-luc cells) (Homo sapiens, UniProt O60896+P30988).
T2 construct: expressed in transfected cells
T2 sequence (P30988 25-474): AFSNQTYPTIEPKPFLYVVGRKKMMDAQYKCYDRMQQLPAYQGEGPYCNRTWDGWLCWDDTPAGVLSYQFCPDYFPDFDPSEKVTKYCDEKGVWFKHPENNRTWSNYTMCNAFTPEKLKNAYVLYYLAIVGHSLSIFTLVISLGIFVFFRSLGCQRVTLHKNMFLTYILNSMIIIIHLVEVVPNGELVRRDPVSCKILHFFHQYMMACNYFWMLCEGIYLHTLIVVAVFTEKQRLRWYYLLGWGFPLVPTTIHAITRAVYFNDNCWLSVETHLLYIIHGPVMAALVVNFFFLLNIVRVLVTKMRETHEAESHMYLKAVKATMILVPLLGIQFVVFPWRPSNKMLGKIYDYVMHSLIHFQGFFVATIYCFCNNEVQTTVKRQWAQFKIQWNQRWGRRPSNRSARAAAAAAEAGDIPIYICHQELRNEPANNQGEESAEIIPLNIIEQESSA
T2 sequence (O60896 24-148 partner): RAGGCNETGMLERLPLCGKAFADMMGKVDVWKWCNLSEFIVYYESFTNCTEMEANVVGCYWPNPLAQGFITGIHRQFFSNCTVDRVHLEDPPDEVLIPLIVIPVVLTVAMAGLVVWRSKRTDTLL
Kind of data set: ASSAY (V) binding to the human amylin receptor (SPA, 125I-rat amylin).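 Note: competition binding of cell membranes (35 ng/µL) mixed with SPA beads in 384-well plates at 40 µL total volume, read by scintillation counting.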

Setting [3] is: Table 5, selectivity, hCTR bind IC50 / hAmylin-R bind IC50.
Setting [4] is: Table 5a, selectivity, hCTR bind IC50 / hAmylin-R bind IC50.
Where [5] appears, read: Table 5b, selectivity, hCTR bind IC50 / hAmylin-R bind IC50.
Where [6] appears, read: Table 5c, selectivity, hCTR bind IC50 / hAmylin-R bind IC50.
[7] abbreviates: Table 7, human binding selectivity, included for comparison.
The mark [8] stands for this setting: Table 7a (preferred compounds), human binding selectivity, included for comparison.
Setting [9] is: ratio of human calcitonin receptor binding IC50 to human amylin receptor binding IC50.
The mark [10] stands for this setting: pH 3.0, read-out: Solubility pH 3.0 Concentration.
[11] abbreviates: pH 4.0, read-out: Solubility pH 4.0 Concentration.
[12] abbreviates: pH 5.0, read-out: Solubility pH 5.0 Concentration.
[13] abbreviates: pH 6.0, read-out: Solubility pH 6.0 Concentration.
Where [14] appears, read: pH 6.5, read-out: Solubility pH 6.5 Concentration.
The mark [15] stands for this setting: pH 7.0, read-out: Solubility pH 7.0 Concentration.
The mark [16] stands for this setting: pH 7.5, read-out: Solubility pH 7.5 Concentration.
Setting [17] is: pH 8.0, read-out: Solubility pH 8.0 Concentration.

Values after ≈ are worked out from the molar mass of the structure shown. Like-named read-outs stand apart in the source and are kept apart here. Numbered stars: 1 amine (or outer) side, 2 acyl side, 3 side chain; on linkers, the order of the positions; unused ones are H or OH. Bridge positions count the residues as written; N and C are the ends. Side chains are listed from the residue outwards. Peptide text beside a SMILES is read from it. * marks the point of attachment. C20 diacid = O=C(O)CCCCCCCCCCCCCCCCCCC(=O)*; γGlu = O=C(O)[C@H](CCC(=O)[*:2])N[*:1]; AEEA = NCCOCCOCC(=O)O

The term IC50 denotes the concentration that inhibits the measured activity by half. As for `CC[C@H](C)[C@H](NC(=O)[C@H](C)NC(=O)CNC(=O)[C@H](Cc1ccccc1)NC(=O)[C@H](CC(N)=O)NC(=O)[C@@H]1CCCN1C(=O)[C@H](CO)NC(=O)[C@H](CO)NC(=O)[C@H](Cc1c[nH]cn1)NC(=O)[C@H](CCCNC(=N)N)NC(=O)[C@H](CC(C)C)NC(=O)[C@H](Cc1ccccc1)NC(=O)[C@H](C)NC(=O)[C@H](C)NC(=O)[C@H](CC(C)C)NC(=O)[C@H](CCCNC(=N)N)NC(=O)[C@H](CCC(N)=O)NC(=O)[C@@H](NC(=O)[C@H](C)NC(=O)[C@@H]1CSSC[C@H](NC(=O)[C@@H](N)CCCCNC(=O)CC[C@H](NC(=O)CCCCCCCCCCCCCCCCCCC(=O)O)C(=O)O)C(=O)N[C@@H](CC(N)=O)C(=O)N[C@@H]([C@@H](C)O)C(=O)N[C@@H](C)C(=O)N[C@@H]([C@@H](C)O)C(=O)N1)[C@@H](C)O)C(=O)N1CCC[C@H]1C(=O)N[C@@H](CO)C(=O)N[C@@H](CO)C(=O)N[C@H](C(=O)N[C@@H](CC(N)=O)C(=O)N[C@H](C(=O)NCC(=O)N1CCC[C@H]1C(=O)N[C@@H](CC(N)=O)C(=O)N[C@H](C(=O)N[C@@H](Cc1ccc(O)cc1)C(N)=O)[C@@H](C)O)C(C)C)[C@@H](C)O` [Example 94] (H-K([γGlu-C20 diacid])CNTATCATQRLAAFLRHSSPNFGAIPSSTNVGPNTY-NH2; disulfide 2-7 (inferred)), the solubility at 18 h in data set [1] (bistrispropane buffer, pH 6.5, read-out: Solubility pH 6.5 Concentration) was at least 200 µM; in data set [1] (bistrispropane buffer, pH 7.5, read-out: Solubility pH 7.5 Concentration), at least 200 µM; in data set [1] (bistrispropane buffer, pH 6.0, read-out: Solubility pH 6.0 Concentration), at least 200 µM; in data set [1] (bistrispropane buffer, pH 7.0, read-out: Solubility pH 7.0 Concentration), at least 200 µM; in data set [1] (bistrispropane buffer, pH 8.0, read-out: Solubility pH 8.0 Concentration), at least 200 µM; in data set [1] (glycylglycine buffer, pH 3.0, read-out: Solubility pH 3.0 Concentration) it was at least 200 µM. In addition, the solubility at 18 h in data set [1] (glycylglycine buffer, pH 4.0, read-out: Solubility pH 4.0 Concentration) was at least 200 µM; in data set [1] (glycylglycine buffer, pH 5.0, read-out: Solubility pH 5.0 Concentration) it was at least 200 µM. Moreover, the IC50 on rat calcitonin receptor is 0.111 µM; in data set [2] (Table 4, read-out: hAmylin-R bind IC50) it was 0.000148 µM. Moreover, the “Ratio hCT/hAmylin binding” value in data set [2] (setting [3]), in data set [2] (setting [4]), in data set [2] (setting [5]), in data set [2] (setting [6]), in data set [2] (setting [7]) and in data set [2] (setting [8]) was 46.3 each time. Moreover, the “Ratio hCT/hAmylin binding” value in data set [2] (setting [9]) was found to be 46.3.

For `CC[C@H](C)[C@H](NC(=O)[C@H](C)NC(=O)CNC(=O)[C@H](Cc1ccccc1)NC(=O)[C@H](CC(N)=O)NC(=O)[C@@H]1CCCN1C(=O)[C@H](CO)NC(=O)[C@H](CO)NC(=O)[C@H](Cc1c[nH]cn1)NC(=O)[C@H](CCCNC(=N)N)NC(=O)[C@H](CC(C)C)NC(=O)[C@H](Cc1ccccc1)NC(=O)[C@H](C)NC(=O)[C@H](C)NC(=O)[C@H](CC(C)C)NC(=O)[C@H](CCCNC(=N)N)NC(=O)[C@H](CCC(N)=O)NC(=O)[C@@H](NC(=O)[C@H](C)NC(=O)[C@@H]1CSSC[C@H](NC(=O)[C@H](CCCNC(=N)N)NC(=O)CNC(=O)CC[C@H](NC(=O)CCCCCCCCCCCCCCCCCCC(=O)O)C(=O)O)C(=O)N[C@@H](CC(N)=O)C(=O)N[C@@H]([C@@H](C)O)C(=O)N[C@@H](C)C(=O)N[C@@H]([C@@H](C)O)C(=O)N1)[C@@H](C)O)C(=O)N1CCC[C@H]1C(=O)N[C@@H](CO)C(=O)N[C@@H](CO)C(=O)N[C@H](C(=O)N[C@@H](CC(N)=O)C(=O)N[C@H](C(=O)NCC(=O)N1CCC[C@H]1C(=O)N[C@@H](CC(N)=O)C(=O)N[C@H](C(=O)N[C@@H](Cc1ccc(O)cc1)C(N)=O)[C@@H](C)O)C(C)C)[C@@H](C)O` [Example 103] ({C20 diacid-γGlu}-GRCNTATCATQRLAAFLRHSSPNFGAIPSSTNVGPNTY-NH2; disulfide 3-8), the solubility at 18 h in data set [1] (setting [10]), in data set [1] (setting [11]), in data set [1] (setting [12]), in data set [1] (setting [13]), in data set [1] (setting [14]) and in data set [1] (setting [15]) was at least 200 µM in each case. For the same compound, the results for the solubility at 18 h in data set [1] (setting [16]) and in data set [1] (setting [17]) were 141 µM (≈ 625 µg/mL) and 194 µM (≈ 860 µg/mL), respectively. Besides, the IC50 is 0.0563 µM at rat calcitonin receptor and 0.000114 µM in data set [2]. Besides, the “Ratio hCT/hAmylin binding” value in data set [2] (setting [3]), in data set [2] (setting [4]), in data set [2] (setting [5]), in data set [2] (setting [6]), in data set [2] (setting [7]) and in data set [2] (setting [8]) was 26.5 in each case. For the same compound, the “Ratio hCT/hAmylin binding” value in data set [2] (setting [9]) turned out to be 26.5.

For `CC[C@H](C)[C@H](NC(=O)[C@H](C)NC(=O)CNC(=O)[C@H](Cc1ccccc1)NC(=O)[C@H](CC(N)=O)NC(=O)[C@@H]1CCCN1C(=O)[C@H](CO)NC(=O)[C@H](CO)NC(=O)[C@H](Cc1c[nH]cn1)NC(=O)[C@H](CCCNC(=N)N)NC(=O)[C@H](CC(C)C)NC(=O)[C@H](Cc1ccccc1)NC(=O)[C@H](CCCCN)NC(=O)[C@H](C)NC(=O)[C@H](CC(C)C)NC(=O)[C@H](CCCNC(=N)N)NC(=O)[C@H](CCC(N)=O)NC(=O)[C@@H](NC(=O)[C@H](C)NC(=O)[C@@H]1CSSC[C@H](NC(=O)[C@@H](N)CCCCNC(=O)COCCOCCNC(=O)CC[C@H](NC(=O)CCCCCCCCCCCCCCCCCCC(=O)O)C(=O)O)C(=O)N[C@@H](CC(N)=O)C(=O)N[C@@H]([C@@H](C)O)C(=O)N[C@@H](C)C(=O)N[C@@H]([C@@H](C)O)C(=O)N1)[C@@H](C)O)C(=O)N1CCC[C@H]1C(=O)N[C@@H](CO)C(=O)N[C@@H](CO)C(=O)N[C@H](C(=O)N1CCC[C@H]1C(=O)N[C@H](C(=O)NCC(=O)N[C@@H](CO)C(=O)N[C@@H](CC(N)=O)C(=O)N[C@H](C(=O)N[C@@H](Cc1ccc(O)cc1)C(N)=O)[C@@H](C)O)C(C)C)[C@@H](C)O` [Example 74] (H-K([AEEA-γGlu-C20 diacid])CNTATCATQRLAKFLRHSSPNFGAIPSSTPVGSNTY-NH2; disulfide 2-7; N-terminus assumed), the solubility at 18 h in data set [1] (setting [10]), in data set [1] (setting [11]), in data set [1] (setting [12]), in data set [1] (setting [13]), in data set [1] (setting [14]) and in data set [1] (setting [15]) was at least 200 µM in each case. In addition, the solubility at 18 h in data set [1] (setting [16]) and in data set [1] (setting [17]) was at least 200 µM each time. Moreover, the IC50 at rat calcitonin receptor is 0.109 µM; in data set [2], 0.000791 µM. In addition, the “Ratio hCT/hAmylin binding” value in data set [2] (setting [3]), in data set [2] (setting [4]), in data set [2] (setting [5]), in data set [2] (setting [6]), in data set [2] (setting [7]) and in data set [2] (setting [8]) was 101.0 each time. In data set [2] (setting [9]), the “Ratio hCT/hAmylin binding” value amounted to 101.0.

(Values after patent US9023789B2, “Amylin analogs and pharmaceutical compositions thereof” (Novo Nordisk A/S, priority 2012, dated 2015).)
